{
  "source": "patent US8722626B2",
  "about": "“Method for controlling fibrosis and other pathological deposits in tissues comprising administering a GHRP-6 composition” (Centro de Ingenieria Genetica y Biotecnologia, priority 2006, dated 2014)",
  "key": {"[1]": {"tested_on": "renal fibrosis in rats (Doxorubicin)", "assay": "Reverting renal fibrosis induced by Doxorubicin in rats (Example 3)", "format": "in vivo, rat", "settings": "for GOT serum level (integrity of the hepatic parenchyma) / GPT serum level (integrity of the hepatic parenchyma) / OH—P Content (hydroxiproline) in kidneys / Grado 0 (null) fibrosis in kidneys, numbers of animals per group / Grado 1 (moderate) fibrosis in kidneys, numbers of animals per group / Grado 2 (intense) fibrosis in kidneys, numbers of animals per group / Grado 3 (very intense) fibrosis in kidneys, numbers of animals per group: 4 weeks; for GOT serum level (integrity of the hepatic parenchyma) / GPT serum level (integrity of the hepatic parenchyma) / OH—P Content (hydroxiproline) in kidneys: end of treatment; for OH—P Content (hydroxiproline) in kidneys: 20 fragments per group; for Grado 0 (null) fibrosis in kidneys, numbers of animals per group / Grado 1 (moderate) fibrosis in kidneys, numbers of animals per group / Grado 2 (intense) fibrosis in kidneys, numbers of animals per group / Grado 3 (very intense) fibrosis in kidneys, numbers of animals per group: N = 20; for Catalase (oxidative stress marker) / HPT (oxidative stress marker) / MDA (oxidative stress marker) / SODt (oxidative stress marker): renal tissue samples, end of the fourth week of treatment", "method": "This experiment was conducted to evaluate the effect of the pharmaceutical composition containing GHRP-6 in reverting renal fibrosis in rats. In this case, the process was induced by sustained administration of the anti-neoplasic agent Doxorubicin (DX) at a 2.5 mg/kg dosage twice a week during 8 weeks. […] This point forward, DX administration was interrupted and the treatment with the pharmaceutical composition containing the GHRP-6 was started. The treatment was applied once daily at 100 and 400 μg/kg in a volume of 1 ml by the intraperitoneal route, during 4 weeks. The animals remaining were randomly distributed into three experimental groups of 20 rats each: (1) Control placebo group, receiving physiological saline solution, (2) Group receiving the GHRP-6 at a 100 μg/kg dosage, and (3) Group receiving the GHRP-6 at a 400 μg/kg dosage. When treatments concluded, the animals were sacrificed by anesthesia overdose and livers, kidneys, lungs and blood sera were collected. Tissue fragments were fixed in formalin neutral and processed by hematoxylin/eosin staining, or by Masson's trichromic staining, to evaluate the general damage and the severity of fibrotic indurations. Other fragments were stored at −70° C. until processing to determine the content of hydroxiproline by acid hydrolysis in 1N HCl, and also the levels of creatinine and oxidative stress markers. Biochemical determinations were carried out by calculating the total protein content by the Bradford's method."}, "[2]": {"tested_on": "transgenic mice over-expressing one mutated form of the NOTCH 3 gene", "assay": "Dementia of vascular origin: transgenic mice over-expressing mutated NOTCH 3 gene (CADASIL model, Example 6)", "format": "in vivo, mouse", "set-up": "SODt (oxidative stress marker) / Cabalase (oxidative stress marker) / HPT (oxidative stress marker) / MDA (oxidative stress marker): unit not given here", "settings": "100 μg/kg i.p. twice a week, 16 weeks", "method": "This experiment was conducted to evaluate the efficacy of pharmaceutical compositions indistinctly containing one of the peptides GHRP-6, GHRP-2, hexarelin or ghrelin on the central neurofunctional involution process in transgenic mice over-expressing one mutated form of the NOTCH 3 gene in blood vessel smooth muscle cells. These animals develop in terms of months an arteriopathy similar to that of the CASADIL disease, referred to the descriptive memory, and is occurring as one of the main causes of vascular dementia. In these animals, vascular lesions also include retinal-cerebral, cerebral and cochlear vasculopathies. The beta-amiloid material present in the brain and blood vessels, the deposit of osmophilic granular material in brain and meningeal artery walls and their reduced lumen are histopathologically relevant. White-pale zones, microinfarction and hemorrhagic foci zones appear in the brain and its main nervous trunks.\nEighteen- to twenty-months-old male mice were employed when evidenced the symptoms of the disease. The animals were randomly assigned to the following experimental treatment groups: • A—Placebo group receiving the physiological saline solution. • B—Group receiving GHRP-6 at a 100 μg/kg dosage. • C—Group receiving GHRP-2 at a 100 μg/kg dosage. • D—Group receiving Ghrelin at a 100 μg/kg dosage. • E—Group receiving Hexarelin at a 100 μg/kg dosage.\nTreatments were applied twice a week during 16 weeks by intraperitoneal route. When treatments concluded, autopsy studies were conducted irrespective of the clinical improvement evidenced in a great number of animals treated. Brain tissue samples including meningeal tissues were collected for biochemical and histopathological determinations. The animals received anesthesia overdosed and subjected to intra-cardiac perfusion with cold physiological saline solution to wash off the blood present in the encephala. The encephala were extracted and one encephalon was frozen in dry-ice and the other was fixed in 4% para-formaldehyde neutral. Samples were cryo-sliced at 10 μm and slices were stained with hematoxylin/eosin, Congo Red, or incubated with an antibody specific for the beta-amiloid protein. Morphometric procedures were carried out by microscopic imaging capture by a camera connected to the microscope, and the images were analyzed with the DIGIPAT software.\nNumber of fibrillar deposits of beta-amiloid in blood vessels.\nNumber of sub-cortical infarctions.\nNumber of sub-cortical hemorrhages.\nBrain concentration of myo-inositol as indicator of aging and brain metabolism deterioration (μmol/g of tissue).\nBrain oxidative stress markers."}, "[3]": {"settings": "Dosage I: 100 μg/kg i.p. once daily"}, "[4]": {"settings": "Dosage II: 400 μg/kg i.p. once daily"}, "[5]": {"settings": "Dosis I: 100 μg/kg i.p. once daily"}, "[6]": {"settings": "Dosis II: 400 μg/kg i.p. once daily"}},
  "note": "Marks after values point to notes of the source that are not given here.",
  "data": [
    {"substance": "GHRP-6", "values": [
      {"measurement": "GOT serum level (integrity of the hepatic parenchyma)", "setting": "[1]; [3]", "value": "64.82 ± 23.71", "unit": "IU/l"},
      {"measurement": "GPT serum level (integrity of the hepatic parenchyma)", "setting": "[1]; [3]", "value": "81.0 ± 10.25", "unit": "IU/l"},
      {"measurement": "OH—P Content (hydroxiproline) in kidneys", "setting": "[1]; [3]", "value": "46.15 ± 2.73 μg/g of total proteins"},
      {"measurement": "GOT serum level (integrity of the hepatic parenchyma)", "setting": "[1]; [4]", "value": "26.22 ± 4.1", "unit": "IU/l"},
      {"measurement": "GPT serum level (integrity of the hepatic parenchyma)", "setting": "[1]; [4]", "value": "28.25 ± 5.66", "unit": "IU/l"},
      {"measurement": "OH—P Content (hydroxiproline) in kidneys", "setting": "[1]; [4]", "value": "8.66 ± 1.02 μg/g of total proteins"},
      {"measurement": "Grado 0 (null) fibrosis in kidneys, numbers of animals per group", "setting": "[1]; [5]", "value": 6},
      {"measurement": "Grado 1 (moderate) fibrosis in kidneys, numbers of animals per group", "setting": "[1]; [5]", "value": 9},
      {"measurement": "Grado 2 (intense) fibrosis in kidneys, numbers of animals per group", "setting": "[1]; [5]", "value": 5},
      {"measurement": "Grado 3 (very intense) fibrosis in kidneys, numbers of animals per group", "setting": "[1]; [5]", "value": 0},
      {"measurement": "Grado 0 (null) fibrosis in kidneys, numbers of animals per group", "setting": "[1]; [6]", "value": 5},
      {"measurement": "Grado 1 (moderate) fibrosis in kidneys, numbers of animals per group", "setting": "[1]; [6]", "value": "15*"},
      {"measurement": "Grado 2 (intense) fibrosis in kidneys, numbers of animals per group", "setting": "[1]; [6]", "value": 0},
      {"measurement": "Grado 3 (very intense) fibrosis in kidneys, numbers of animals per group", "setting": "[1]; [6]", "value": 0},
      {"measurement": "Percent of animals with renal fibrosis compromise per group at the end of the treatment", "setting": "[1]; FIGURE, 100 and 400 μg/kg vs. placebo, highest difference at 400 μg/kg", "value": "dosage-dependent effect"},
      {"measurement": "Catalase (oxidative stress marker)", "setting": "[1]; Dosage I: 100 μg/kg", "value": "126.02 ± 12.23"},
      {"measurement": "HPT (oxidative stress marker)", "setting": "[1]; Dosage I: 100 μg/kg", "value": "73.2 ± 6.92"},
      {"measurement": "MDA (oxidative stress marker)", "setting": "[1]; Dosage I: 100 μg/kg", "value": "0.56 ± 2.23"},
      {"measurement": "SODt (oxidative stress marker)", "setting": "[1]; Dosage I: 100 μg/kg", "value": "665.08 ± 28.42"},
      {"measurement": "Catalase (oxidative stress marker)", "setting": "[1]; Dosage II: 400 μg/kg", "value": "45.38 ± 8.27"},
      {"measurement": "HPT (oxidative stress marker)", "setting": "[1]; Dosage II: 400 μg/kg", "value": "16.14 ± 3.67"},
      {"measurement": "MDA (oxidative stress marker)", "setting": "[1]; Dosage II: 400 μg/kg", "value": "0.087 ± 0.02"},
      {"measurement": "SODt (oxidative stress marker)", "setting": "[1]; Dosage II: 400 μg/kg", "value": "1287.64 ± 112.63"},
      {"measurement": "Cabalase (oxidative stress marker)", "setting": "[2]; brain", "value": "51.5 ± 16.01"},
      {"measurement": "Cerebral Myo-inositol", "setting": "[2]; brain", "value": "12.36 ± 5.64 μmol/g of tissue"},
      {"measurement": "HPT (oxidative stress marker)", "setting": "[2]; brain", "value": "101.7 ± 22.09"},
      {"measurement": "MDA (oxidative stress marker)", "setting": "[2]; brain", "value": "0.23 ± 0.05"},
      {"measurement": "SODt (oxidative stress marker)", "setting": "[2]; brain", "value": "12327.31 ± 55.1"},
      {"measurement": "No. of blood vessels positive to Congo Red", "setting": "[2]; cerebral tissues", "value": "16.31 ± 5.33"},
      {"measurement": "No. of blood vessels positive to Nissl", "setting": "[2]; cerebral tissues", "value": "14.22 ± 8.15"},
      {"measurement": "No. of hemorrhagic foci.", "setting": "[2]; cerebral tissues", "value": "19.05 ± 5.14"},
      {"measurement": "No. of subcortical infarctions.", "setting": "[2]; cerebral tissues", "value": "26.79 ± 4.19"}
    ]}
  ]
}
